Assay results published in patent US20230093099A1, “COMPOUNDS AND METHODS OF TREATING CANCERS” (CULLGEN (SHANGHAI), INC., priority 2019, published 2023).

System: RS4;11 cells
Assay: Cell viability assay (CellTiter-Glo) in RS4;11 cells
Assay type: cell-based
Conditions: Homo sapiens, 72 h; RS4;11 cells; cell viability, 3 days, CellTiter-Glo; read-out: IC50
How it was run: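 RS4;11 cells seeded at 5000 per well, exposed for 3 days to 8- or 12-point 3-fold serial dilutions. Viability read by CellTiter-Glo luminescence; IC50 fitted by nonlinear least-squares regression.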

Q: Which IC50 does the source give for `CS(=O)(=O)c1ccc(-c2cccc3nc(Nc4ccc(N5CCN(CC(=O)NCCNc6cccc7c6C(=O)N(C6CCC(=O)NC6=O)C7=O)CC5)cc4)nn23)cc1` (stereo not shown) [JA-117, N-(2-((2-(2,6-Dioxopiperidin-3-yl)-1,3-dioxoisoindolin-4-yl)amino)ethyl)-2-(4-(4-((5-(4-(methylsulfonyl)phenyl)-[1,2,4]triazolo[1,5-a]pyridin-2-yl)amino)phenyl)piperazin-1-yl)acetamide] here?
A: 1.44 µM

Q: For `CS(=O)(=O)c1ccc(-c2cccc3nc(Nc4ccc(N5CCN(CC(=O)NCCCCCCCCNc6cccc7c6C(=O)N(C6CCC(=O)NC6=O)C7=O)CC5)cc4)nn23)cc1` (stereo not shown) [JA-118, N-(8-((2-(2,6-Dioxopiperidin-3-yl)-1,3-dioxoisoindolin-4-yl)amino)octyl)-2-(4-(4-((5-(4-(methylsulfonyl)phenyl)-[1,2,4]triazolo[1,5-a]pyridin-2-yl)amino)phenyl)piperazin-1-yl)acetamide], which IC50 is on record?
A: > 10 µM

Q: How did the IC50 turn out when `Cc1ncsc1-c1ccc(CNC(=O)[C@@H]2C[C@@H](O)CN2C(=O)[C@@H](NC(=O)CCNC(=O)CN2CCN(c3ccc(Nc4nc5cccc(-c6ccc(S(C)(=O)=O)cc6)n5n4)cc3)CC2)C(C)(C)C)cc1` [JA-119, (2S,4R)-1-((S)-3,3-Dimethyl-2-(3-(2-(4-(4-((5-(4-(methylsulfonyl)phenyl)-[1,2,4]triazolo[1,5-a]pyridin-2-yl)amino)phenyl)piperazin-1-yl)acetamido)propanamido)butanoyl)-4-hydroxy-N-(4-(4-methylthiazol-5-yl)benzyl)pyrrolidine-2-carboxamide] was run?
A: > 10 µM

Q: Which IC50 does the source give for `Cc1ncsc1-c1ccc(CNC(=O)[C@@H]2C[C@@H](O)CN2C(=O)[C@@H](NC(=O)CCCCCCCCCNC(=O)CN2CCN(c3ccc(Nc4nc5cccc(-c6ccc(S(C)(=O)=O)cc6)n5n4)cc3)CC2)C(C)(C)C)cc1` [JA-120, (2S,4R)-1-((S)-3,3-Dimethyl-2-(10-(2-(4-(4-((5-(4-(methylsulfonyl)phenyl)-[1,2,4]triazolo[1,5-a]pyridin-2-yl)amino)phenyl)piperazin-1-yl)acetamido)decanamido)butanoyl)-4-hydroxy-N-(4-(4-methylthiazol-5-yl)benzyl)pyrrolidine-2-carboxamide] here?
A: > 10 µM

Q: `Cc1ncsc1-c1ccc(CNC(=O)[C@@H]2C[C@@H](O)CN2C(=O)[C@@H](NC(=O)CCCCCCCCNC(=O)CN2CCN(c3ccc(Nc4nc5cccc(-c6ccc(S(C)(=O)=O)cc6)n5n4)cc3)CC2)C(C)(C)C)cc1` [JA-121, (2S,4R)-1-((S)-3,3-Dimethyl-2-(9-(2-(4-(4-((5-(4-(methylsulfonyl)phenyl)-[1,2,4]triazolo[1,5-a]pyridin-2-yl)amino)phenyl)piperazin-1-yl)acetamido)nonanamido)butanoyl)-4-hydroxy-N-(4-(4-methylthiazol-5-yl)benzyl)pyrrolidine-2-carboxamide] was tested. Which IC50 did it give?
A: > 10 µM

Q: Which IC50 does the source give for `Cc1ncsc1-c1ccc(CNC(=O)[C@@H]2C[C@@H](O)CN2C(=O)[C@@H](NC(=O)CCCCCNC(=O)CN2CCN(c3ccc(Nc4nc5cccc(-c6ccc(S(C)(=O)=O)cc6)n5n4)cc3)CC2)C(C)(C)C)cc1` [JA-122, (2S,4R)-1-((S)-3,3-Dimethyl-2-(6-(2-(4-(4-((5-(4-(methylsulfonyl)phenyl)-[1,2,4]triazolo[1,5-a]pyridin-2-yl)amino)phenyl)piperazin-1-yl)acetamido)hexanamido)butanoyl)-4-hydroxy-N-(4-(4-methylthiazol-5-yl)benzyl)pyrrolidine-2-carboxamide] here?
A: > 10 µM

Q: With `Cc1ncsc1-c1ccc(CNC(=O)[C@@H]2C[C@@H](O)CN2C(=O)[C@@H](NC(=O)CCCCCCNC(=O)CN2CCN(c3ccc(Nc4nc5cccc(-c6ccc(S(C)(=O)=O)cc6)n5n4)cc3)CC2)C(C)(C)C)cc1` [JA-123, (2S,4R)-1-((S)-3,3-Dimethyl-2-(7-(2-(4-(4-((5-(4-(methylsulfonyl)phenyl)-[1,2,4]triazolo[1,5-a]pyridin-2-yl)amino)phenyl)piperazin-1-yl)acetamido)heptanamido)butanoyl)-4-hydroxy-N-(4-(4-methylthiazol-5-yl)benzyl)pyrrolidine-2-carboxamide] as the compound, how does the IC50 read?
A: > 10 µM
